Source: ChEMBL document CHEMBL1201862, “PubChem BioAssay data set” (2004)
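A five-concentration, 48-hour dose response in 96-well plates underlies each endpoint, interpolated linearly between surrounding concentrations. GI50 marks 50% less growth.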 Activity calls are given as the source filed them. No stated cut-off is given here; in the data, active = GI50 up to about 1.1 µM and inactive = higher.

Legend:
Experiment in all cases: DTP human tumour cell line panel, 48 h
IGROV-1 = system: IGROV-1
SN12C = system: SN12C
NCI-H460 = system: NCI-H460
MCF7 = system: MCF7
COLO 205 = system: COLO 205
SR = system: SR
SK-MEL-28 = system: SK-MEL-28
NCI-H226 = system: NCI-H226
A498 = system: A498
HOP-92 = system: HOP-92
786-0 = system: 786-0
KM12 = system: KM12
M14 = system: M14
DU-145 = system: DU-145
ACHN = system: ACHN
RPMI-8226 = system: RPMI-8226
SNB-75 = system: SNB-75
PC-3 = system: PC-3
HOP-62 = system: HOP-62
MDA-N = system: MDA-N

Measured: GI50

Cc1[nH]nc(-c2ccon2)c1N=O
inactive: IGROV-1 23 µM | SN12C 26.7 µM | NCI-H460 36.1 µM | MCF7 22.9 µM | COLO 205 19.9 µM | SR 10 µM | SK-MEL-28 20.2 µM | NCI-H226 14.6 µM | A498 > 100 µM | HOP-92 14.2 µM | 786-0 20.4 µM | KM12 21 µM | M14 20.8 µM | DU-145 21.4 µM | ACHN 15 µM | RPMI-8226 3.78 µM | SNB-75 32.2 µM | PC-3 25.3 µM | HOP-62 21 µM

Cn1c(=O)c2c(nc(Cc3ccccc3)n2CC(=O)O)n(C)c1=O
inactive: IGROV-1 > 100 µM | SN12C > 100 µM | NCI-H460 > 100 µM | SK-MEL-28 > 100 µM | NCI-H226 > 100 µM | A498 > 100 µM | HOP-92 > 100 µM | 786-0 > 100 µM | KM12 > 100 µM | M14 > 100 µM | MDA-N > 100 µM | DU-145 > 100 µM | ACHN > 100 µM | SNB-75 > 100 µM | PC-3 > 100 µM | HOP-62 > 100 µM

O=CC1C(Cl)=Nc2nc3ccccc3n2C1c1ccc([N+](=O)[O-])cc1 (stereo not drawn)
inactive: IGROV-1 12.3 µM | SN12C 15.4 µM | NCI-H460 31.1 µM | MCF7 3.97 µM | COLO 205 3.14 µM | SR 2.16 µM | SK-MEL-28 2.51 µM | NCI-H226 3.33 µM | A498 24.7 µM | HOP-92 5.45 µM | 786-0 4.3 µM | KM12 24.8 µM | M14 7.93 µM | DU-145 4.74 µM | ACHN 2.43 µM | RPMI-8226 3.77 µM | SNB-75 1.77 µM | PC-3 4.89 µM | HOP-62 8.28 µM

CCOC(=O)/C(=N/Nc1ccccc1)N1C(=S)N(C)N=C(C)C=C1S
inactive: IGROV-1 > 100 µM | SN12C > 100 µM | NCI-H460 > 100 µM | MCF7 > 100 µM | COLO 205 > 100 µM | SR > 100 µM | SK-MEL-28 > 100 µM | HOP-92 47.8 µM | KM12 > 100 µM | M14 > 100 µM | DU-145 > 100 µM | ACHN > 100 µM | RPMI-8226 > 100 µM | SNB-75 10 µM

CCCCOC(=O)NC(Nc1ccc(S(N)(=O)=O)cc1)(C(F)(F)F)C(F)(F)F
inactive: SN12C > 100 µM | NCI-H460 > 100 µM | MCF7 > 100 µM | SR > 100 µM | SK-MEL-28 > 100 µM | NCI-H226 > 100 µM | A498 > 100 µM | KM12 > 100 µM | M14 > 100 µM | DU-145 > 100 µM | ACHN > 100 µM | RPMI-8226 > 100 µM | SNB-75 > 100 µM | HOP-62 > 100 µM

COc1cccc(Nc2nc(-c3cccs3)nc3ccc(Br)cc23)c1
inactive: IGROV-1 > 100 µM | SN12C > 100 µM | NCI-H460 25.6 µM | MCF7 12.7 µM | COLO 205 > 100 µM | SR 1.48 µM | NCI-H226 78 µM | A498 > 100 µM | HOP-92 31.4 µM | 786-0 33.3 µM | KM12 74 µM | M14 > 100 µM | DU-145 > 100 µM | ACHN > 100 µM | RPMI-8226 1.67 µM | PC-3 27.4 µM | HOP-62 20 µM

O=C(Cc1ccccc1)NN1C(=O)/C(=C\c2ccc(O)cc2)S/C1=N\c1ccccc1
inactive: IGROV-1 > 100 µM | SN12C > 100 µM | NCI-H460 > 100 µM | MCF7 84.1 µM | COLO 205 > 100 µM | SK-MEL-28 > 100 µM | NCI-H226 > 100 µM | A498 > 100 µM | HOP-92 21.6 µM | 786-0 > 100 µM | KM12 > 100 µM | M14 > 100 µM | MDA-N > 100 µM | DU-145 > 100 µM | ACHN > 100 µM | RPMI-8226 > 100 µM | SNB-75 50.7 µM | HOP-62 > 100 µM

Cc1ccc(-c2c(C#N)c(N)nc3c2CCS(=O)(=O)c2ccccc2-3)cc1
inactive: IGROV-1 34.1 µM | SN12C 81.8 µM | NCI-H460 > 100 µM | COLO 205 > 100 µM | SK-MEL-28 72.4 µM | NCI-H226 66.1 µM | A498 > 100 µM | HOP-92 34.1 µM | 786-0 44.2 µM | KM12 > 100 µM | MDA-N > 100 µM | DU-145 74.6 µM | ACHN 52.4 µM | RPMI-8226 > 100 µM | SNB-75 20.6 µM | PC-3 78.9 µM
